According to patent publication US10618937B2, “Method of treating Alzheimer's disease” (INDUSTRY-ACADEMIC COOPERATION FOUNDATION GYEONGSANG …, priority 2016, dated 2020):

Legend:
[1] = test system: APP-transfected SH-SY5Y cells; assay: MTT assay, cell viability of APP-transfected SH-SY5Y cells; type: cell-based, human; details: 0.5, 1, 5, 10 and 20 μM, 4 hours, compared to the untreated APP group
Description: The human APPswe/ind gene under the transcriptional control of the SV40 promoter/enhancer linked to the pCAX mammalian expression vector was obtained from addgene; The gene was deposited in the APP reservoir by Dennis Solkoe (plasmid 30145). The plasmid was amplified by DH5alpha strain in LB medium containing 50 μg/ml of ampicillin. The plasmid was purified by using a Qiagen plasmid mini kit (Cat #12143) and digested with EcoRV restriction enzyme and confirmed. The human neuroblastoma cell line SHYSY5Y used in the present in vitro experiments was cultured in DMEM medium containing 10% fetal bovine serum and 1% penicillin-streptomycin antibiotic (stock solutions concentrations of 10,000 U and 10,000 μg/ml, respectively)).
(§1) SH-SY5Y cells and HT-22 cells were inoculated into a culture flask containing the medium, and cultured until reaching the confluency of 70% to 75%. The pCAX vector with the APPswe/ind gene was transfected for 48 hours by using Lipofectamine 3000 (Life technologies) according to the manufacturers instructions.
APPswe/ind transfected SH-SY5Y cells were treated with novel peptide for 4 hours, followed by 3-[4, 5-dimethylthiazol-2-yl]-2,5-diphenyl tetrazolium bromide (MTT) analysis and Western blot analysis.
MTT assay was performed to measure the survival rate of cells treated with various concentrations of adiponectin receptor-activating novel peptide (5AA1). The cells were inoculated at 1×10^5 cells/well in a 96-well plate containing 200 μl of Dulbecco's modified Eagle's medium (DMEM). After 70% of cell confluence, SH-SY5Y cells were treated with 0.5 μM, 1 μM, 5 μM, 10 μM, and 20 μM of adiponectin receptor-activating novel peptide, and then cultured for 4 hours. At the end of the treatment, MTT (5 mg/ml in PBS) was added to each well, and the plate was cultured at a temperature of 37° C. for 4 hours. The formazan dissolved in dimethyl sulfoxide (DMSO) was added to the well and the plate was stirred in the agitator for 10 to 20 minutes. Then, the absorbance was measured at a wavelength of 550 nm to 570 nm (L1) and 620 nm to 650 nm (L2) by using a scanning microplate reader.
The L2 absorbance was measured for cell residuals and well imperfections, and the corrected absorbance (Abs.=L1−L2) of each well was calculated from 100× the absorbance of treated well/absorbance of the control well, and was used to measure the cell viability.

[2] = test system: APP-transfected HT-22 cells; assay: Western blot analysis of proteins isolated from APP-transfected HT-22 cells; type: cell-based; details: 1, 5, 10 or 20 μM
Description: as §1
Protein concentrations were measured by using a BIORAD protein assay kit (BIORAD LABORATORIES, CA, USA). Equal amounts of protein (15 to 25 μg) were electrophoresed under the same experimental conditions using 4 to 12% BLOT™ minigel and MES SDS electrophoresis buffer (running buffer) 1×(NOVEX, LIFE TECHNOLOGIES, Kiryat Shmona, Israel), and a broad range prestained protein marker (GANGNAM STAIN™, Intron Biotechnology) was used as the control for the molecular size. To reduce nonspecific binding, the membranes used were blocked with 5% (w/v) skim milk and reacted with a primary antibody (a 1:1000 dilution) overnight at 4° C. After an appropriate reaction with a horseradish peroxidase (HRP)-binding secondary antibody, proteins were detected by using an ECL detection reagent (AMERSHAM PHARMECIA BIOTECH, Uppsala, Sweden) according to the manufacturer's instructions. The X-ray film was scanned and the optical density of the band was analyzed using a densitometry using a computer-based Sigma Gel program, version 1.0 (SPSS, Chicago, Ill., USA).
For use as the primary antibody, anti-amyloid β (Aβ), anti-APP, anti-AdipoR1 (Adiponectin receptor 1), anti-phospho-AMPK, anti-SNAP-25 (Synaptosomal-Associated Protein 25), anti-SAP-102, anti-Syanpatophysin, phospho-Tau (Ser 413), anti-p-mTOR, anti-p-ULK1, and anti-β-actin were used.

[3] = test system: primary hippocampus neurons; assay: In vitro electrophysiological analysis (AMPAR-mediated mEPSCs); type: cell-based, Sprague-Dawley rats; details: compared to the Aβ group, various concentrations
Description: Primary hippocampus neurons isolated from E19 Sprague-Dawley rats were cultured to a density of 150 cells/mm^2. AMPA receptor (AMPAR)-mediated miniature excitatory postsynaptic currents (mEPSCs) were recorded by using conventional whole-cell techniques. When primary hippocampus neurons were filled with an internal solution, the electrode resistance was varied from 3 MΩ to 5 MΩ.
The inventors of the present specification performed current measurements by using an Axopatch 200A patch-clamp amplifier (Molecular Devices, Sunnyvale, Calif.).
The voltage of the membrane and the voltage of current, commands, and digitization were adjusted by using Digidata 1322A connected to Clampex 9.2 (Molecular Devices, Sunnyvale, Calif.) of the pClamp software package on an IBM-compatible computer. The inventors of the present specification analyzed data by using Clampfit (Molecular Devices, Sunnyvale, Calif.) and Prism 4.0 (GraphPad, San Diego, Calif.). The current was low-pass filtered at 2 kHz by using an amplifiers four-pole Bessel filter. […]
The cumulative probability curve of mEPSCs was calculated by using Clampfit 9.0 software and Prism 4.0 (GraphPad, San Diego, Calif.). […]

**Q.** For “RGPCG (adiponectin receptor-activating peptide) [5AA1]”, which cell viability [1] is on record?
**A.** concentration-dependently increased

**Q.** And the “expression of AdipoR1 protein” value [2]?
**A.** expressed more

**Q.** And the “expression of p-AMPK protein” value [2]?
**A.** expressed more

**Q.** And the “expression level of amyloid β (Aβ)” value ([2]; normalized with β-actin)?
**A.** significantly reduced

**Q.** And the “expression level of β-amyloid precursor protein (APP)” value ([2]; normalized with β-actin)?
**A.** significantly reduced

**Q.** And the mEPSC frequency [3]?
**A.** statistically significantly increased
